16 compounds from US10004732B2 (Novartis AG, priority 2014, dated 2018) can be followed below.

In one data set the target is PI 4-kinase beta (Homo sapiens, UniProt Q9UBF8). Description: Kinase Glo Luminescent Kinase Assay (Kglo), assay D. The class given is biochemical. Particulars: read-out: Assay D PI4Kβ IC50. A general note: Kinase-Glo reads ATP consumption through a luciferase reaction.
Data set [1] concerns the target T1, PI 3-kinase delta (Homo sapiens, UniProt O00329). Description: Cellular assay J1, p-Akt (S473) in Rat-1 cells, Surefire format. The class given is cell-based. Particulars: non-asterisked data: version J1 (Surefire format), Rat-1 cells; read-out: Assay J PI3Kδ IC50.
Target sequence in this assay (O00329 whole entry): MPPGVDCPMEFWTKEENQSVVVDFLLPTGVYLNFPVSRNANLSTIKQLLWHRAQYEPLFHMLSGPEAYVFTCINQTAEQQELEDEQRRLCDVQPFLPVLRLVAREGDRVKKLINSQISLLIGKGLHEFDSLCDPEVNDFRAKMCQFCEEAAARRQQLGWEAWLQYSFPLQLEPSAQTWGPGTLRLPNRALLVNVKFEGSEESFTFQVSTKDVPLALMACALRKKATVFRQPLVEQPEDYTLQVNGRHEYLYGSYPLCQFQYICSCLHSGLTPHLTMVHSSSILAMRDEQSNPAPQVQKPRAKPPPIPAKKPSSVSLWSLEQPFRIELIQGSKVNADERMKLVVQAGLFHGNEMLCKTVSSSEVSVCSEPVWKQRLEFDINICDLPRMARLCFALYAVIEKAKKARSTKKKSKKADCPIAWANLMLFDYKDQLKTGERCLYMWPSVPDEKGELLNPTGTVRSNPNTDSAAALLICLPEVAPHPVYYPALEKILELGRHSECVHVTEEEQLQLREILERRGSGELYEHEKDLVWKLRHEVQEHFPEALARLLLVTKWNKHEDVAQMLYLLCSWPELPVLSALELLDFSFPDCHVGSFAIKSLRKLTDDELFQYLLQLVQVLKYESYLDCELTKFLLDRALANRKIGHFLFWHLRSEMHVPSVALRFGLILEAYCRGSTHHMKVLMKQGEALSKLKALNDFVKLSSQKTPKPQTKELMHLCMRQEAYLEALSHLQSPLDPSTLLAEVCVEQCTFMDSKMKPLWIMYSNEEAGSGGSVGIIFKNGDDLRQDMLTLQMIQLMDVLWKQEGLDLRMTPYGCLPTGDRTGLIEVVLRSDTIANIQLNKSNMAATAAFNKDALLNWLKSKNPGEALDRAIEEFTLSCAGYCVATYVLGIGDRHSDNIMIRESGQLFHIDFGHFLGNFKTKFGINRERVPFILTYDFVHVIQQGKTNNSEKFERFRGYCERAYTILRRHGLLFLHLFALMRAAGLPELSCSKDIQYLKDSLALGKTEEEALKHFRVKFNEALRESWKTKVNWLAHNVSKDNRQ
Target sequence in this assay (Q63787 whole entry partner): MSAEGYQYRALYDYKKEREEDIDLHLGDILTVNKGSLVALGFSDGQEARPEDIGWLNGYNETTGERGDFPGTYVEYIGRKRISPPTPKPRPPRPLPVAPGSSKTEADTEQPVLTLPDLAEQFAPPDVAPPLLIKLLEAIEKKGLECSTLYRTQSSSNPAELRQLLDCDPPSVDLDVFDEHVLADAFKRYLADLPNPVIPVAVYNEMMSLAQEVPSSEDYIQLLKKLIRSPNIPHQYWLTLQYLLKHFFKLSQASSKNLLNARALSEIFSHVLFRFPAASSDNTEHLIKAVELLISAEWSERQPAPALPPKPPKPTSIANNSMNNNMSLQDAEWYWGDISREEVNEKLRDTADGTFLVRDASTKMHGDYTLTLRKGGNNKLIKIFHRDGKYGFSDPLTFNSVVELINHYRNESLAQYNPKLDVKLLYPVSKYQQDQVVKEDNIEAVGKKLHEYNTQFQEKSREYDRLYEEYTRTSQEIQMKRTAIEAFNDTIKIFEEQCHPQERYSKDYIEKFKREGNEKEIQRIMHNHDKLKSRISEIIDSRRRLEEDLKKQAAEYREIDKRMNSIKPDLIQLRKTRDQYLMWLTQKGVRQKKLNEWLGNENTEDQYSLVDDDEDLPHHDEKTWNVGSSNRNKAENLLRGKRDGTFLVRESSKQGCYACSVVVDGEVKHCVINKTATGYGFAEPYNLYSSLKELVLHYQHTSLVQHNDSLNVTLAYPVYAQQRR
For data set [2], the target named is T2, PI 3-kinase alpha (Homo sapiens, UniProt P42336). The data set can be described thus: Cellular assay H1, p-Akt (S473) in Rat-1 cells, Surefire format. The class given is cell-based. Particulars: non-asterisked data: version H1 (Surefire format), Rat-1 cells; read-out: Assay H PI3Kα IC50.
Target sequence in this assay (P42336 whole entry): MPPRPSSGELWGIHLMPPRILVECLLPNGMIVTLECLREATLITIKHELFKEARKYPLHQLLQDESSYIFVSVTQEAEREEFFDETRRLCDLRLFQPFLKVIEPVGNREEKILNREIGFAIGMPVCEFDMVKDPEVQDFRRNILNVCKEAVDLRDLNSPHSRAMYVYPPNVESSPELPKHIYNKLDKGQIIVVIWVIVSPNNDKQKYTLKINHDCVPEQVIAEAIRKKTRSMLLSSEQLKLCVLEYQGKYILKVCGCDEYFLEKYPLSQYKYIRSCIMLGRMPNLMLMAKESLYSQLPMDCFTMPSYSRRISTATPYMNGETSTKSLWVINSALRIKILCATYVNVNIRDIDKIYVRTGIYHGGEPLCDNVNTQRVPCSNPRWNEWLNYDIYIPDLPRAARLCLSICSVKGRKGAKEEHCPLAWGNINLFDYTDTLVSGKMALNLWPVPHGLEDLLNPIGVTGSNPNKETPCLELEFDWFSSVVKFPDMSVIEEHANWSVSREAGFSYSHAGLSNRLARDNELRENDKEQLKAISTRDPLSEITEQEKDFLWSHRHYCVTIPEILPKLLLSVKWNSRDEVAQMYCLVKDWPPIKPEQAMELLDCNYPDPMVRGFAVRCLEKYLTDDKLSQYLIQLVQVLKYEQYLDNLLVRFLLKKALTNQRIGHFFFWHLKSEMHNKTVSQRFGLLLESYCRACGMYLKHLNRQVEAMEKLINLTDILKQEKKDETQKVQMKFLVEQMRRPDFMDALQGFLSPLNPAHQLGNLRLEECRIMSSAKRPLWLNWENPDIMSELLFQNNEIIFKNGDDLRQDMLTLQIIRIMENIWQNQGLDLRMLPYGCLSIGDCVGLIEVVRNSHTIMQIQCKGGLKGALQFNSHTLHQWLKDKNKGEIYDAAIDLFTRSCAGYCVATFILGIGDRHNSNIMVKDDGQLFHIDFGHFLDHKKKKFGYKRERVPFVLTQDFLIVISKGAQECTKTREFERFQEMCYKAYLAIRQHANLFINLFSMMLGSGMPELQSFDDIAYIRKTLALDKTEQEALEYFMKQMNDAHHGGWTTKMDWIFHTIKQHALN
Target sequence in this assay (Q63787 whole entry partner): as the sequence (Q63787 whole entry partner) above
The next data set concerns the target Vps34 (Homo sapiens, UniProt Q8NEB9). The data set can be described thus: Kinase Glo Luminescent Kinase Assay (Kglo), assay C. Particulars: read-out: Assay C VPS34 IC50. The class given is biochemical.
For data set [3], the target named is T1, PI 3-kinase delta. The data set can be described thus: TR-FRET Adapta assay, assay F. (Time-resolved FRET reads energy transfer from a long-lived donor to a nearby acceptor.)
Target sequence in this assay (O00329 whole entry): as the sequence (O00329 whole entry) above
Target sequence in this assay (P27986 461-568 partner): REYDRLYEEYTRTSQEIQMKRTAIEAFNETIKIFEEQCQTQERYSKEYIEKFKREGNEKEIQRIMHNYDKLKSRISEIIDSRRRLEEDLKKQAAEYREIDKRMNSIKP
For data set [4], the target named is T2, PI 3-kinase alpha. The data set can be described thus: Kinase Glo Luminescent Kinase Assay (Kglo), assay A. The class given is biochemical. Particulars: read-out: Assay A PI3Kα IC50.
Target sequence in this assay (P42336 whole entry): as the sequence (P42336 whole entry) above
The next data set deals with PI 3-kinase gamma (Homo sapiens, UniProt P48736). The data set can be described thus: TR-FRET Adapta assay, assay E. The class given is biochemical. Particulars: for IC50: read-out: Assay E PI3Kγ IC50.
Sequence of PI 3-kinase gamma (P48736 whole entry): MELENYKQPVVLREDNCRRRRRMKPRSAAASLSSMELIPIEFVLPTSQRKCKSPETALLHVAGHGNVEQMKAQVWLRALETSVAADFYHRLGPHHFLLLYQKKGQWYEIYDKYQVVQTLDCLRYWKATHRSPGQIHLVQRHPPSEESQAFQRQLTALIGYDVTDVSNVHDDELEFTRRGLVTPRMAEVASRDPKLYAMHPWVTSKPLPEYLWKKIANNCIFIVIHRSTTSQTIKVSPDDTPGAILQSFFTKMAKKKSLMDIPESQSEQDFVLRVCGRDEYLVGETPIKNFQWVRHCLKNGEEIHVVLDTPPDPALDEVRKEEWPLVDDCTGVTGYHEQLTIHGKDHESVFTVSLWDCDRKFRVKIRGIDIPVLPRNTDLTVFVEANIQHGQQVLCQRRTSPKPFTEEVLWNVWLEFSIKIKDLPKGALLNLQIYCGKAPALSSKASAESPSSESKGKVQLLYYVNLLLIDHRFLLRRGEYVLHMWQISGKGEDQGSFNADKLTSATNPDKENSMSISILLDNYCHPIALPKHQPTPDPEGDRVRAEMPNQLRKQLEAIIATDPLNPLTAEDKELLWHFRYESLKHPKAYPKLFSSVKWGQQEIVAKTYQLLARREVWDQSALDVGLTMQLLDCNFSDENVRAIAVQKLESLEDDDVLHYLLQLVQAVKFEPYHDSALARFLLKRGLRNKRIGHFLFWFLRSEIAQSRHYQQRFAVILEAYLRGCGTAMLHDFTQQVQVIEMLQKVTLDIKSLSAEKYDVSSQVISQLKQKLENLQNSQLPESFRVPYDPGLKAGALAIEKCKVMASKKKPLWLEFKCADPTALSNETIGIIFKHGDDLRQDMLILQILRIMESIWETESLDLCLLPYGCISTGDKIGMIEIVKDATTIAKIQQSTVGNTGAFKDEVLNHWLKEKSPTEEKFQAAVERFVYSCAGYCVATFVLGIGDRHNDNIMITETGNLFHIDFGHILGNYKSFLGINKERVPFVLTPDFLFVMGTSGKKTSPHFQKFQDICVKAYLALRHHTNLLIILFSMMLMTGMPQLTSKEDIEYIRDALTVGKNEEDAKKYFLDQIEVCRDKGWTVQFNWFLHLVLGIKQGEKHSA
A further data set addresses mTOR (Homo sapiens, UniProt P42345). Description: Lanthascreen kinase binding assay, assay G. Particulars: read-out: Assay G mTOR IC50.
The target of data set [5] is T3, PI 3-kinase beta (Homo sapiens, UniProt P42338). Description: Kinase Glo Luminescent Kinase Assay (Kglo), assay B. Particulars: read-out: Assay B PI3Kβ IC50. The class given is biochemical.
Data set [6] addresses T3, PI 3-kinase beta. Description: Cellular assay I1, p-Akt (S473) in Rat-1 cells, Surefire format. Type of data set: cell-based. Particulars: non-asterisked data: version I1 (Surefire format), Rat-1 cells; read-out: Assay I PI3Kβ IC50.
The nature of data set [7]: Microsomal clearance assay (M). Particulars: intrinsic clearance in rat liver microsomes.
Procedure: The experiments were performed in 96-well glass plates at 37° C. on an automated Tecan EVO platform. Test compounds at a concentration of 10 mM in pure DMSO were diluted 1:1000 in water to 10 μM. […] Reactions were initiated by the addition of 150 μL of a cofactor solution containing 2 mM NADPH.

Sequence of PI 4-kinase beta (Q9UBF8 whole entry): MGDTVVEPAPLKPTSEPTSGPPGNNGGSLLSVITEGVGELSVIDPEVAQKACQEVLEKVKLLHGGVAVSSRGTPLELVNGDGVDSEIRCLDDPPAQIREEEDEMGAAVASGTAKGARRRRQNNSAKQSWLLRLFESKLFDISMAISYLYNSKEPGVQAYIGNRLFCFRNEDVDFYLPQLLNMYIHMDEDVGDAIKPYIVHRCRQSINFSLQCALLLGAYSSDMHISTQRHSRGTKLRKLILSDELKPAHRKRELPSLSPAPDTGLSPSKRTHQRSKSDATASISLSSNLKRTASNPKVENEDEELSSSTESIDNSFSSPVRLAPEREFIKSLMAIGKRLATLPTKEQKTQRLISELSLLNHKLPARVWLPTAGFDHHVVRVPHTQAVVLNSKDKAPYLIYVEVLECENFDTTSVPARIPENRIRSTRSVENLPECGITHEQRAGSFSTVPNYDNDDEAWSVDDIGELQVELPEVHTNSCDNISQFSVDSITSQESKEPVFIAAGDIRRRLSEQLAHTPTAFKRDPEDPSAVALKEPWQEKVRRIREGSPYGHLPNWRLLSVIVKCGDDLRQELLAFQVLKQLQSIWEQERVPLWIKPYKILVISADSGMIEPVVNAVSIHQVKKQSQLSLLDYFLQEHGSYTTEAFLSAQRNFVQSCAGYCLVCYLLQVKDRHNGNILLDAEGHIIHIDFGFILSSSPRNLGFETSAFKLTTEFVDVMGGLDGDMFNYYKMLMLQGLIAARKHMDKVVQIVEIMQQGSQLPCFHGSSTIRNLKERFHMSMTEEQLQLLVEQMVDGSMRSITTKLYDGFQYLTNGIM
Procedure for mTOR: Lanthascreen™ Kinase Binding Assay for mTOR (G)
Binding of an inhibitor to the kinase competes for binding with the tracer, resulting in a loss of FRET.
50 nL of compound dilutions were dispensed onto white 384-well small volume polystyrene plate.

Broadly, the IC50 is the concentration needed to halve the response being measured. For the compound `Cc1ccc(S(=O)(=O)NC[C@@H]2COCCN2C)cc1-c1cnc(N)c(-c2cn(C)nc2C)n1` (single isomer, unassigned) [Example 128.3a, (R)-3-(5-Amino-6-(1,3-dimethyl-1H-pyrazol-4-yl)pyrazin-2-yl)-4-methyl-N-((4-methylmorpholin-3-yl)methyl)benzenesulfonamide or (S)-3-(5-Amino-6-(1,3-dimethyl-1H-pyrazol-4-yl)pyrazin-2-yl)-4-methyl-N-((4-methylmorpholin-3-yl)methyl)benzenesulfonamide], the IC50 at PI 4-kinase beta was over 10000 nM; at PI 3-kinase delta [1], 2100 nM; on PI 3-kinase alpha [2] it was 5150 nM; at Vps34 it was over 10000 nM.
Take `Cc1ccc(S(=O)(=O)NCC2COCCN2C)cc1-c1cnc(N)c(-c2cn(C)nc2C)n1` (single isomer, unassigned) [Example 128.3b, (R)-3-(5-Amino-6-(1,3-dimethyl-1H-pyrazol-4-yl)pyrazin-2-yl)-4-methyl-N-((4-methylmorpholin-3-yl)methyl)benzenesulfonamide or (S)-3-(5-Amino-6-(1,3-dimethyl-1H-pyrazol-4-yl)pyrazin-2-yl)-4-methyl-N-((4-methylmorpholin-3-yl)methyl)benzenesulfonamide]: the IC50 on PI 4-kinase beta was 4600 nM; on PI 3-kinase delta [1], 3820 nM; at PI 3-kinase alpha [2], 4970 nM; at PI 3-kinase delta [3], 540 nM; on PI 3-kinase alpha [4], 370 nM; at Vps34, over 10000 nM. For the same compound, at PI 3-kinase gamma, the IC50 came to 55 nM.
As to `Cc1ccc(S(=O)(=O)NCC(C)(C)O)cc1-c1cnc(N)c(-n2cncn2)n1` [Example 6, 3-(5-Amino-6-(1H-1,2,4-triazol-1-yl)pyrazin-2-yl)-N-(2-hydroxy-2-methylpropyl)-4-methylbenzenesulfonamide], the IC50 is 9010 nM at mTOR; 7120 nM on PI 4-kinase beta; over 9400 nM at Vps34; 2310 nM on PI 3-kinase beta [5]; 7280 nM at PI 3-kinase beta [6].
For `Cc1ncc(-c2nc(-c3cc(S(=O)(=O)NCC(C)(C)O)ccc3C)cnc2N)s1` [Example 7, 3-(5-Amino-6-(2-methylthiazol-5-yl)pyrazin-2-yl)-N-(2-hydroxy-2-methylpropyl)-4-methylbenzenesulfonamide] the same measures were 920 nM, 1950 nM, 390 nM, 990 nM and 3460 nM.
For `Cc1ncc(-c2nc(-c3cc(S(=O)(=O)NCCCO)ccc3C)cnc2N)s1` [Example 10, 3-(5-Amino-6-(2-methylthiazol-5-yl)pyrazin-2-yl)-N-(3-hydroxypropyl)-4-methylbenzenesulfonamide], the IC50 was determined as 1880 nM at mTOR; 1890 nM on PI 4-kinase beta; 600 nM at PI 3-kinase delta [1]; 60 nM on PI 3-kinase delta [3] (read-out: Assay F PI3Kδ IC50); 210 nM on Vps34; 890 nM at PI 3-kinase beta [5]. For the same compound, the IC50 at PI 3-kinase beta [6] amounted to 6310 nM.
With `Cc1ncc(-c2nc(-c3cc(S(=O)(=O)N[C@H]4CC[C@H](O)CC4)ccc3C)cnc2N)s1` [Example 14, Trans-3-(5-Amino-6-(2-methylthiazol-5-yl)pyrazin-2-yl)-N-(4-hydroxycyclohexyl)-4-methylbenzenesulfonamide], the IC50 at mTOR worked out at 880 nM; at PI 4-kinase beta, 1570 nM; on PI 3-kinase delta [1], 310 nM; at PI 3-kinase delta [3] (read-out: Assay F PI3Kδ IC50), 40 nM; on Vps34 it was 420 nM; on PI 3-kinase beta [5], 620 nM. In addition, on PI 3-kinase beta [6], the IC50 turned out to be 1790 nM.
Consider `Cc1ccc(S(=O)(=O)NCC(C)(C)O)cc1-c1cnc(N)c(-c2cnn(C)n2)n1` [Example 18, 3-[5-Amino-6-(2-methyl-2H-[1,2,3]triazol-4-yl)-pyrazin-2-yl]-N-(2-hydroxy-2-methyl-propyl)-4-methyl-benzenesulfonamide], for which the IC50 was 5550 nM at mTOR; 8600 nM on PI 4-kinase beta; over 10000 nM on Vps34; 2800 nM at PI 3-kinase beta [5]; 2600 nM at PI 3-kinase beta [6].
For the compound `Cc1ccc(S(=O)(=O)NCC(C)(C)O)cc1-c1cnc(N)c(-c2nn(C)nc2C)n1` [Example 19, 3-[5-Amino-6-(2,5-dimethyl-2H-[1,2,3]triazol-4-yl)-pyrazin-2-yl]-N-(2-hydroxy-2-methyl-propyl)-4-methyl-benzenesulfonamide], the half-maximal inhibitory concentration (IC50) on mTOR came out at 420 nM; on PI 4-kinase beta it was 3850 nM; at PI 3-kinase delta [1] it was 70 nM; at PI 3-kinase delta [3] (read-out: Assay F PI3Kδ IC50), 20 nM; at PI 3-kinase beta [5] it was 140 nM; on PI 3-kinase beta [6], 280 nM.
With `Cc1ncc(-c2nc(-c3cc(S(=O)(=O)NC4CCC(F)(F)CC4)ccc3C)cnc2N)s1` [Example 55, 3-(5-Amino-6-(2-methylthiazol-5-yl)pyrazin-2-yl)-N-(4,4-difluorocyclohexyl)-4-methylbenzenesulfonamide], the IC50 is 620 nM at mTOR; 3740 nM on PI 4-kinase beta; 1240 nM on PI 3-kinase delta [1]; 30 nM at PI 3-kinase delta [3] (read-out: Assay F PI3Kδ IC50); 640 nM on Vps34; 120 nM on PI 3-kinase beta [5]. Besides, the half-inhibitory concentration (IC50) on PI 3-kinase beta [6] is 2670 nM.
For `Cc1ccc(S(=O)(=O)NC2CC3(CC(O)C3)C2)cc1-c1cnc(N)c(-c2cn(C)nc2C)n1` (stereo not drawn) [Example 74, 3-(5-Amino-6-(1,3-dimethyl-1H-pyrazol-4-yl)pyrazin-2-yl)-N-(6-hydroxyspiro[3.3]heptan-2-yl)-4-methylbenzenesulfonamide], the IC50 at mTOR was 3500 nM; at PI 3-kinase delta [1] it was 6860 nM; at PI 3-kinase delta [3] (read-out: Assay F PI3Kδ IC50), 380 nM; at Vps34, over 10000 nM; at PI 3-kinase gamma, 41 nM; on PI 3-kinase beta [5] it was 830 nM. For the same compound, the IC50 on PI 3-kinase beta [6] was over 10000 nM. Also, in data set [7], the “Assay M RLM CI(int)” value is 30 µL/min/mg.
As to `Cc1ncc(-c2nc(-c3cc(S(=O)(=O)N[C@H]4CC[C@@H](O)CC4)ccc3C)cnc2N)s1` [Example 87, 3-(5-Amino-6-(2-methylthiazol-5-yl)pyrazin-2-yl)-N-((1s,4s)-4-hydroxycyclohexyl)-4-methylbenzenesulfonamide], the IC50 was determined as 1840 nM on mTOR; 1570 nM at PI 4-kinase beta; 1220 nM on PI 3-kinase delta [1]; 30 nM on PI 3-kinase delta [3] (read-out: Assay F PI3Kδ IC50); 320 nM at Vps34; 270 nM at PI 3-kinase beta [5]. Further, the IC50 at PI 3-kinase beta [6] was determined as 3400 nM.
Consider `Cc1ccc(S(=O)(=O)NOCC(C)C)cc1-c1cnc(N)c(-n2cncn2)n1` [Example 112.4, 3-(5-Amino-6-(1H-1,2,4-triazol-1-yl)pyrazin-2-yl)-N-isobutoxy-4-methylbenzenesulfonamide], for which the IC50 was over 10000 nM at mTOR; 1100 nM on PI 4-kinase beta; 400 nM at PI 3-kinase delta [1]; 70 nM on PI 3-kinase alpha [2]; 190 nM on PI 3-kinase delta [3] (read-out: Assay F PI3Kδ IC50); 80 nM on PI 3-kinase alpha [4]. In addition, the IC50 at Vps34 was over 10000 nM; at PI 3-kinase gamma, 93 nM; at PI 3-kinase beta [5], 560 nM; on PI 3-kinase beta [6], over 3000 nM.
For `Cc1ccc(S(=O)(=O)NCCC(C)(C)O)cc1-c1cnc(N)c(-c2cc(C(F)(F)F)nn2C)n1` [Example 119, 3-(5-Amino-6-(1-methyl-3-(trifluoromethyl)-1H-pyrazol-5-yl)pyrazin-2-yl)-N-(3-hydroxy-3-methylbutyl)-4-methylbenzenesulfonamide], the IC50 at mTOR was 4310 nM; at PI 4-kinase beta, over 9100 nM; at PI 3-kinase delta [1], 1760 nM; on PI 3-kinase alpha [2], 1640 nM; on PI 3-kinase delta [3] (read-out: Assay F PI3Kδ IC50) it was 710 nM; on PI 3-kinase alpha [4], 600 nM. The 50% inhibitory concentration (IC50) on Vps34 is over 9100 nM; on PI 3-kinase gamma, 118 nM; on PI 3-kinase beta [5] it was over 9100 nM; at PI 3-kinase beta [6], 3060 nM.
As to `Cc1ncc(-c2nc(-c3cc(S(=O)(=O)NCCC(C)(C)O)ccc3C)cnc2N)s1` [Example 119.29], the 50% inhibitory concentration (IC50) at mTOR came out at 590 nM; on PI 4-kinase beta, 2640 nM; on PI 3-kinase delta [1], 470 nM; at PI 3-kinase delta [3] (read-out: Assay F PI3Kδ IC50), 70 nM; on Vps34, 570 nM; on PI 3-kinase beta [5], 920 nM. Besides, the IC50 on PI 3-kinase beta [6] stood at 9080 nM.
As to `Cc1ccc(S(=O)(=O)NCC2CN(C)CCO2)cc1-c1cnc(N)c(-c2cn(C)nc2C)n1` (stereo not drawn) [Example 128.5, 3-(5-Amino-6-(1,3-dimethyl-1H-pyrazol-4-yl)pyrazin-2-yl)-4-methyl-N-((4-methylmorpholin-2-yl)methyl)benzenesulfonamide], the IC50 was over 10000 nM on PI 4-kinase beta; over 10000 nM at PI 3-kinase delta [1]; over 10000 nM at PI 3-kinase alpha [2]; 2200 nM at PI 3-kinase delta [3] (read-out: Assay F PI3Kδ IC50); 2300 nM at PI 3-kinase alpha [4]; over 10000 nM on Vps34. The IC50 at PI 3-kinase gamma is 370 nM; on PI 3-kinase beta [5], 9600 nM; at PI 3-kinase beta [6], over 10000 nM.
As to `Cc1ccc(S(=O)(=O)NCCC(C)(C)O)cc1-c1cnc(N)c(-c2cccnc2OC(C)C)n1` [Reference example 119.12, 3-(5-amino-6-(2-isopropoxypyridin-3-yl)pyrazin-2-yl)-N-(3-hydroxy-3-methylbutyl)-4-methylbenzenesulfonamide], the 50% inhibitory concentration (IC50) at PI 3-kinase delta [1], on PI 3-kinase alpha [2] and at PI 3-kinase beta [6] was over 10000 nM throughout. Moreover, the “activity in assay E” value at PI 3-kinase gamma (TR-FRET Adapta, PI 3-kinase gamma) is on record as “not shown any activity”.
